The text below walks through data of US8362065B2, “Carbazole carboxamide compounds useful as kinase inhibitors” (Bristol-Myers Squibb Company, priority 2008, dated 2013).

Where a name gives a salt, the structure may show the parent alone.

The target of the test is T1, human recombinant Btk (Homo sapiens, UniProt Q06187).
T1 construct: purchased Invitrogen Corporation
T1 sequence (Q06187 whole entry): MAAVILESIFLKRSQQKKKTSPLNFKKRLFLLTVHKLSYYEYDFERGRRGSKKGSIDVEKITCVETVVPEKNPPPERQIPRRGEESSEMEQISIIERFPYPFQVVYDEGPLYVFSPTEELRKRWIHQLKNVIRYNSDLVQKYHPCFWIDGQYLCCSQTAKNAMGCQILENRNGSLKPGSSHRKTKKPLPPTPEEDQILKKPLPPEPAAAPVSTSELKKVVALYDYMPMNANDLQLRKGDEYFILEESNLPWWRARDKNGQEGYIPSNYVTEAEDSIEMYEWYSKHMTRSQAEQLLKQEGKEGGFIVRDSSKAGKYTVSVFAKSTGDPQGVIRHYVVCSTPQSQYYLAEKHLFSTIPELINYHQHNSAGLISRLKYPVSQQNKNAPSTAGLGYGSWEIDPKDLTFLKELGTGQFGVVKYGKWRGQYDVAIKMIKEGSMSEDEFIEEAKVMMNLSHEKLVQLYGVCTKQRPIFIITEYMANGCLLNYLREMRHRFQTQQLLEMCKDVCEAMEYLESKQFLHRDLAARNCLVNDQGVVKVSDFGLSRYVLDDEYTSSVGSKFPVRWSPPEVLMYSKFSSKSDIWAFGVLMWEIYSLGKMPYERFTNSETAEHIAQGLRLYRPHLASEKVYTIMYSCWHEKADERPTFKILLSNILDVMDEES
Put plainly: Human Recombinant Btk Enzyme Assay. The class given is biochemical. Conditions: human recombinant Btk 1 nM, ATP 20 μM, 60 min at room temperature; read-out: IC50 for Inhibition of Btk.
As to `Cc1c(-c2ccc(C(N)=O)c3[nH]c4c(c23)CCC(C(=O)N(C)C2CCN(C)CC2)C4)cccc1N1Cc2ccc(C(F)(F)F)cc2C1=O` (stereo not shown) [Example 3-130], the IC50 came to 2 nM.

Take `Cc1nc(N)sc1-c1ccc(C(N)=O)c2[nH]c3c(c12)CCC(C(=O)NC1CCOCC1)C3` (stereo not shown) [Example 4-3, 5-(2-amino-4-methylthiazol-5-yl)-N^2-(tetrahydro-2H-pyran-4-yl)-2,3,4,9-tetrahydro-1H-carbazole-2,8-dicarboxamide]: the half-maximal inhibitory concentration (IC50) was found to be 390 nM.

For `Cc1c(NC(=O)c2cccnc2)cccc1-c1ccc(C(N)=O)c2[nH]c3cc(C(=O)N4CCN(C)CC4)ccc3c12` [Example 5-7], the IC50 stood at 18 nM.

For `Cc1c(NC(=O)c2ncc[nH]2)cccc1-c1ccc(C(N)=O)c2[nH]c3cc(C(=O)N4CCN(C)CC4)ccc3c12` [Example 5-9, 4-(3-(1H-imidazole-2-carboxamido)-2-methylphenyl)-7-(4-methylpiperazine-1-carbonyl)-9H-carbazole-1-carboxamide (prepared as the TFA salt)], the IC50 amounted to 1.9 nM.

As to `Cc1c(NC(=O)c2nc(C(C)C)cs2)cccc1-c1ccc(C(N)=O)c2[nH]c3cc(C(=O)N4CCN(C)CC4)ccc3c12` [Example 5-16], the IC50 is 18 nM.

`Cc1c(NC(=O)c2ncccc2O)cccc1-c1ccc(C(N)=O)c2[nH]c3cc(C(=O)N4CCN(C)CC4)ccc3c12` [Example 5-19, 4-(3-(3-hydroxypicolinamido)-2-methylphenyl)-7-(4-methylpiperazine-1-carbonyl)-9H-carbazole-1-carboxamide (prepared as the TFA salt)]: the IC50 came out at 17 nM.

Regarding `Cc1c(NC(=O)C2(c3ccc(F)cc3)CC2)cccc1-c1ccc(C(N)=O)c2[nH]c3cc(C(=O)N4CCN(C)CC4)ccc3c12` [Example 5-42], the IC50 came out at 15 nM.

Turning to `Cc1c(NC(=O)C(C)(C)c2ccc(Cl)cc2)cccc1-c1ccc(C(N)=O)c2[nH]c3cc(C(=O)N4CCN(C)CC4)ccc3c12` [Example 5-44], the 50% inhibitory concentration (IC50) turned out to be 16 nM.

With `Cc1ccc(C(=O)Nc2cccc(-c3ccc(C(N)=O)c4[nH]c5cc(C(=O)N6CCN(C)CC6)ccc5c34)c2C)cc1` [Example 5-58, 4-(2-methyl-3-(4-methylbenzamido)phenyl)-7-(4-methylpiperazine-1-carbonyl)-9H-carbazole-1-carboxamide (prepared as the TFA salt)], the IC50 amounted to 2.2 nM.

Take `Cc1c(NC(=O)CC(C)C)cccc1-c1ccc(C(N)=O)c2[nH]c3cc(C(=O)N4CCN(C)CC4)ccc3c12` [Example 5-62, 4-(2-methyl-3-(3-methylbutanamido)phenyl)-7-(4-methylpiperazine-1-carbonyl)-9H-carbazole-1-carboxamide (prepared as the TFA salt)]: the IC50 was 17 nM.

Turning to `Cc1c(NC(=O)c2ccc(S(N)(=O)=O)cc2)cccc1-c1ccc(C(N)=O)c2[nH]c3cc(C(=O)N4CCN(C)CC4)ccc3c12` [Example 5-69, 4-(2-methyl-3-(4-sulfamoylbenzamido)phenyl)-7-(4-methylpiperazine-1-carbonyl)-9H-carbazole-1-carboxamide (prepared as the TFA salt)], the IC50 amounted to 2 nM.

For the compound `Cc1c(NC(=O)C2(C#N)CC2)cccc1-c1ccc(C(N)=O)c2[nH]c3cc(C(=O)N4CCN(C)CC4)ccc3c12` [Example 5-73, 4-(3-(1-cyanocyclopropanecarboxamido)-2-methylphenyl)-7-(4-methylpiperazine-1-carbonyl)-9H-carbazole-1-carboxamide (prepared as the TFA salt)], the concentration for half-maximal inhibition (IC50) stood at 18 nM.

Turning to `Cc1nc(NC(=O)c2ccccc2)sc1-c1ccc(C(N)=O)c2[nH]c3c(c12)CCC(C(=O)NC1CCOCC1)C3` (stereo not shown) [Example 5-86], the half-maximal inhibitory concentration (IC50) is 910 nM.

Regarding `Cc1c(NC(=O)Nc2ccccc2)cccc1-c1ccc(C(N)=O)c2[nH]c3cc(C(=O)N4CCN(C)CC4)ccc3c12` [Example 8-3, 4-(2-methyl-3-(3-phenylureido)phenyl)-7-(4-methylpiperazine-1-carbonyl)-9H-carbazole-1-carboxamide], the half-inhibitory concentration (IC50) turned out to be 16 nM.

Consider `Cc1c(NS(=O)(=O)CCCCl)cccc1-c1ccc(C(N)=O)c2[nH]c3cc(C(=O)N4CCN(C)CC4)ccc3c12` [Example 10-4, 4-(3-(3-chloropropylsulfonamido)-2-methylphenyl)-7-(4-methylpiperazine-1-carbonyl)-9H-carbazole-1-carboxamide], for which the half-inhibitory concentration (IC50) was determined as 17 nM.

For the compound `Cc1c(Nc2nccc3ccccc23)cccc1-c1ccc(C(N)=O)c2[nH]c3cc(C(=O)N4CCN(C)CC4)ccc3c12` [Example 11-1, 4-(3-(isoquinolin-1-ylamino)-2-methylphenyl)-7-(4-methylpiperazine-1-carbonyl)-9H-carbazole-1-carboxamide], the IC50 came out at 15 nM.

With `Cc1c(-c2ccc(C(N)=O)c3[nH]c4cc(C(=O)N5CCN(C)CC5)ccc4c23)cccc1N1CCCS1(=O)=O` [Example 12-1, 4-(3-(1,1-dioxoisothiazolidin-2-yl)-2-methylphenyl)-7-(4-methylpiperazine-1-carbonyl)-9H-carbazole-1-carboxamide], the half-maximal inhibitory concentration (IC50) was determined as 18 nM.

On to `CN1CCN(C(=O)c2ccc3c(c2)[nH]c2c(C(N)=O)ccc(N4CCC[C@@H](N)C4)c23)CC1` [Example 17-1, (R)-4-(3-aminopiperidin-1-yl)-7-(4-methylpiperazine-1-carbonyl)-9H-carbazole-1-carboxamide], for which the IC50 stood at 1100 nM.

As for `CN1CCN(C(=O)c2ccc3c(c2)[nH]c2c(C(N)=O)ccc(N4CCC[C@@H](NC(=O)Nc5nccs5)C4)c23)CC1` [Example 19-1, (R)-7-(4-methylpiperazine-1-carbonyl)-4-(3-(3-thiazol-2-ylureido)piperidin-1-yl)-9H-carbazole-1-carboxamide], the half-maximal inhibitory concentration (IC50) is 17 nM.

For the compound `CN1CCN(C(=O)c2ccc3c(c2)[nH]c2c(C(N)=O)ccc(N4CCCCC4=O)c23)CC1` [Example 20-1, 7-(4-methylpiperazine-1-carbonyl)-4-(2-oxopiperidin-1-yl)-9H-carbazole-1-carboxamide], the concentration for half-maximal inhibition (IC50) stood at 510 nM.

Take `Cc1c(NC(=O)c2ccc(F)cc2)cccc1-c1ccc(C(N)=O)c2[nH]c3cc(C(N)=O)ccc3c12` [Example 24-1, 4-(3-(4-fluorobenzamido)-2-methylphenyl)-9H-carbazole-1,7-dicarboxamide]: the IC50 came to 17 nM.

In the case of `Cc1c(NC(=O)c2ccc(F)cc2)cccc1-c1ccc(C(N)=O)c2[nH]c3cc(C(=O)N4CCN(CCO)CC4)ccc3c12` [Example 24-17, 4-(3-(4-fluorobenzamido)-2-methylphenyl)-7-(4-(2-hydroxyethyl)piperazine-1-carbonyl)-9H-carbazole-1-carboxamide (prepared as the TFA salt)], the half-inhibitory concentration (IC50) came out at 15 nM.

For the compound `COc1cccc(NC(=O)c2ccc3c(c2)[nH]c2c(C(N)=O)ccc(-c4cccc(NC(=O)c5ccc(F)cc5)c4C)c23)c1` [Example 24-33, 4-(3-(4-fluorobenzamido)-2-methylphenyl)-N^7-(3-methoxyphenyl)-9H-carbazole-1,7-dicarboxamide (prepared as the TFA salt)], the 50% inhibitory concentration (IC50) stood at 470 nM.

As to `Cc1c(NC(=O)c2ccc(F)cc2)cccc1-c1ccc(C(N)=O)c2[nH]c3cc(C(=O)Nc4ccc(F)cc4)ccc3c12` [Example 24-34, 4-(3-(4-fluorobenzamido)-2-methylphenyl)-N^7-(4-fluorophenyl)-9H-carbazole-1,7-dicarboxamide (prepared as the TFA salt)], the IC50 is 410 nM.

Take `Cc1c(-c2ccc(C(N)=O)c3[nH]c4c(c23)CCC(CO)C4)cccc1N1C(=O)c2ccc(C(C)(C)C)cc2C1=O` (stereo not shown) [Example 31-2, 5-(3-(5-tert-butyl-1,3-dioxoisoindolin-2-yl)-2-methylphenyl)-2-(hydroxymethyl)-2,3,4,9-tetrahydro-1H-carbazole-8-carboxamide]: the concentration for half-maximal inhibition (IC50) came out at 700 nM.

Turning to `CC(=O)OCC1CCc2c([nH]c3c(C(N)=O)ccc(-c4cccc(N5C(=O)c6ccc(C(C)(C)C)cc6C5=O)c4C)c23)C1` (stereo not shown) [Example 31-3, (5-(3-(5-tert-butyl-1,3-dioxoisoindolin-2-yl)-2-methylphenyl)-8-carbamoyl-2,3,4,9-tetrahydro-1H-carbazol-2-yl)mEtOAc], the IC50 amounted to 1500 nM.

`Cc1c(-c2ccc(C(N)=O)c3[nH]c4cc(CN)ccc4c23)cccc1N1Cc2ccccc2C1=O` [Example 33-1, 7-(aminomethyl)-4-(2-methyl-3-(1-oxoisoindolin-2-yl)phenyl)-9H-carbazole-1-carboxamide]: the IC50 is 1.9 nM.

`Cc1c(-c2ccc(C(N)=O)c3[nH]c4cc(CNC(=O)CO)ccc4c23)cccc1N1Cc2ccccc2C1=O` [Example 34-2, 7-((2-hydroxyacetamido)methyl)-4-(2-methyl-3-(1-oxoisoindolin-2-yl)phenyl)-9H-carbazole-1-carboxamide]: the half-maximal inhibitory concentration (IC50) stood at 2 nM.

Regarding `CC(=O)NCc1ccc2c(c1)[nH]c1c(C(N)=O)ccc(-c3cccc(N4Cc5ccc(F)cc5C4=O)c3C)c12` [Example 38-2, 7-(acetamidomethyl)-4-(3-(6-fluoro-1-oxoisoindolin-2-yl)-2-methylphenyl)-9H-carbazole-1-carboxamide], the IC50 was determined as 2.1 nM.

Consider `Cc1c(NC(=O)c2ccc(F)cc2)cccc1-c1ccc(C(N)=O)c2[nH]c3cc(CN4CCCC4)ccc3c12` [Example 39-4], for which the half-maximal inhibitory concentration (IC50) was determined as 1.7 nM.

On to `Cc1c(-c2ccc(C(N)=O)c3[nH]c4cc(O)ccc4c23)cccc1N1Cc2ccccc2C1=O` [Example 41-1, 7-hydroxy-4-(2-methyl-3-(1-oxoisoindolin-2-yl)phenyl)-9H-carbazole-1-carboxamide], for which the concentration for half-maximal inhibition (IC50) was 16 nM.

Regarding `NC(=O)c1ccc(-c2ccccc2F)c2c3c([nH]c12)CCC(Oc1ccccc1)C3` (stereo not shown) [Example 47-2, 5-(2-fluorophenyl)-3-phenoxy-2,3,4,9-tetrahydro-1H-carbazole-8-carboxamide], the IC50 amounted to 4200 nM.

Turning to `NC(=O)c1ccc(-c2ccccc2F)c2c1[nH]c1ccc(Oc3ccccc3)cc12` [Example 48-2], the IC50 stood at 1700 nM.

As for `NC(=O)c1ccc(Br)c2c1[nH]c1cc(NC(=O)OCc3ccccc3)ccc12` [Example 50-3, benzyl 5-bromo-8-carbamoyl-9H-carbazol-2-ylcarbamate], the concentration for half-maximal inhibition (IC50) came out at 1300 nM.
